# Legend:
# [1] = tested on: Aβ40 from human neuroblastoma cells (hDAT; SK-N-MC); assay: Aβ40 ELISA, human neuroblastoma cells transiently transfected with APPsw; type: cell-based; conditions: 200 μM, 24 hours
# Method: Human neuroblastoma cells (hDAT; SK-N-MC stably overexpression human dopamine transporter) were routinely maintained in DMEM supplemented with sodium pyruvate (1 mM) and 10% fetal bovine serum. […] Subsequently, 48 hours post-transfection the cells were rinsed with PBS and treated with vehicle (0.1% DMSO) or 100-200 μM pirinixic acid in serum free/phenol free DMEM for 24 hours. After the pharmacological treatment, the exposure media was collected and supplemented with 10% sample treatment buffer (40 mM sodium phosphate (pH 7.4), 40 mM triethanolamine, 0.1% Triton X-100, 200 mM NaCl, 2 mM EGTA, 0.1% Sodium azide), and assayed for either Aβ40 or AP42 by a calorimetric ELISA as per the manufacturer's protocol (Biosource International Inc, California). The cells were lysed in 0.1% Triton X-100 in PBS supplemented with 5 μM Propridium Iodide (Molecular probes, Eugene, Oreg.) and incubated at 37° C. for 30 minutes prior to measuring fluorescence. Secreted Aβ40 and Aβ42 levels were standardized against propridium iodide fluorescence as a measure of total cell number. Data are expressed as a percent of control and represent the mean±SD with n=11 and statistical significance determined by ANOVA with a Tukey's post hoc test at ***p<0.001.
# [2] = tested on: Aβtotal from primary murine cortical neurons; assay: Aβtotal immunoprecipitation, primary murine cortical neurons infected with APP695; type: cell-based; conditions: primary murine cortical neurons infected with APP695, below 250 μM (5-50 μM)
# Method: The cDNA coding for human APP695 is cloned in the Smal site of pSFV-1 as described previously (Simons et al., J. Neurosci. 16:899-908, 1996; Tienari et al., Embo. J. 15:5218-29, 1996). PSFV-1/huAPP695 constructs are linearized,with SpeI and run-off transcription using SP6 polymerase is performed to produce mRNA. The transcribed mix of APP and pSFV-helper are cotransfected into BHK cells by electroporation to yield recombinant SFV (Olkkonen et al., J. Neurosci. Res. 35:445-51, 1993). BHK cells are grown in DMEM/F12 supplemented with 5% fetal calf serum, 2 mM L-glutamine, 100 U/ml penicillin, and […] streptomycin. Twenty-four hours after transfection, the culture supernatant containing infective recombinant SFV is collected. Aliquots are snap-frozen in liquid nitrogen and stored at −70° C. until use.
# All experiments are conducted on murine primary cortical neurons derived from E14 embryos according to established procedures (Annaert et al., J. Cell Biol. 147:277-294, 1999; Cupers et al., J. Cell Biol. 154:731-40, 2001; De Strooper et al., Nature 391:387-90, 1998). […]
# Data are expressed as a percent of control and represent the mean±SD with n=6 and statistical significance determined by ANOVA with a Tukey's post hoc test at **p<0.01, ***p<0.001.
smiles,measurement,setting,value
Cc1cccc(Nc2cc(Cl)nc(SCC(=O)O)n2)c1C [pirinixic acid],effect on Aβ40,[1],without altering Aβ40
same,effect on Aβtotal,[2],no significant effect

# — patent publication US20030191144A1, “Compounds, compositions and methods for modulating beta-amyloid production” (Active Pass Pharmaceuticals, Inc., priority 2001, published 2003)
